ChEMBL document CHEMBL5625251, “Anti-influenza virus activities and mechanism of antrafenine analogs” (Eur J Med Chem, 2023)
Calls of active or inactive are those of the source. No cut-off for these calls is given here.

What was measured:
[1] = Selectivity index, ratio of CC50 for cytotoxicity against MDCK cells assessed as reduction in cell viability to IC50 for antiviral activity against Influenza A virus A/WSN/33(H1N1) infected in MDCK cells assessed as inhibition of viral growth; assay type: toxicity, cell-based; conditions: dog, read-out: Ratio CC50/IC50
[2] = Selectivity index, ratio of CC50 for cytotoxicity against African green monkey Vero cells assessed as reduction in cell viability to IC50 for inhibition of Influenza A virus A/WSN/33(H1N1) Ribonucleoprotein transfected in Vero cells; assay type: toxicity, cell-based; conditions: read-out: Ratio CC50/IC50
Influenza A virus [3] = experiment: Antiviral activity against Influenza A virus A/WSN/33(H1N1) infected in MDCK cells MOI 0.1 assessed as reduction in viral titre at 12.5 uM pre-infected with cells for 6 hrs followed by compound addition and measured after 4 to 6 hrs post infection by time of addition assay; assay type: functional; set-up: scale not given: the % may be the effect or the level left
[4] = Selectivity index, ratio of CC50 for cytotoxicity against MDCK cells assessed as reduction in cell viability to IC50 for antiviral activity against Influenza A virus B/Florida/4/06 infected in MDCK cells MOI 0.01 assessed as inhibition of viral growth; assay type: toxicity, cell-based; conditions: dog, read-out: Ratio CC50/IC50
Nucleoprotein = Nucleoprotein (Influenza A virus (strain A/Wilson-Smith/1933 H1N1), UniProt P15682); experiment: Binding affinity to Influenza A virus Nucleoprotein assessed as dissociation constant by MST assay
Chain of Nucleoprotein (P15682 whole entry): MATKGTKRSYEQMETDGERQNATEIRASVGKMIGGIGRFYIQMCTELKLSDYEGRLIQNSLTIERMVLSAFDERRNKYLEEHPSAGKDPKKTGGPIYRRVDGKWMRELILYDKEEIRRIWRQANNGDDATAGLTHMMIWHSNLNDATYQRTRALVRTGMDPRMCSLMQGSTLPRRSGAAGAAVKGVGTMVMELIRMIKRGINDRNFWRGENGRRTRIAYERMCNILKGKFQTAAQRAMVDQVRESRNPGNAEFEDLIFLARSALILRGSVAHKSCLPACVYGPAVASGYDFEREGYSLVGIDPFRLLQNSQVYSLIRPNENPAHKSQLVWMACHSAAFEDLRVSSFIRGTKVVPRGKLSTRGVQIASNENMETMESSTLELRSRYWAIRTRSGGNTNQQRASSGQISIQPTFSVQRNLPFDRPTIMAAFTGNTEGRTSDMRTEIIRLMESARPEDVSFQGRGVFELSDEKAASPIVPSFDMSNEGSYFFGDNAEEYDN

Influenza A virus [5] = experiment: Antiviral activity against Influenza A virus A/WSN/33(H1N1) infected in MDCK cells MOI 0.1 assessed as reduction in viral titre at 12.5 uM pre-infected with cells for 6 hrs followed by compound addition and measured after 2 hrs post infection by time of addition assay; assay type: functional, organism-based
[6] = Selectivity index, ratio of CC50 for cytotoxicity against MDCK cells assessed as reduction in cell viability to IC50 for antiviral activity against Influenza A virus A/PR/8/34 infected in MDCK cells MOI 0.01 assessed as inhibition of viral growth; assay type: toxicity, cell-based; conditions: dog, read-out: Ratio CC50/IC50
[7] = Inhibition of Influenza A virus A/WSN/33(H1N1) Ribonucleoprotein transfected in Vero cells incubated for 48 hrs by spectrophotometer analysis; assay type: cell-based
Influenza A virus [8] = experiment: Antiviral activity against Influenza A virus A/WSN/33(H1N1) infected in chicken erythrocytes assessed as reduction in Haemagglutinin level preincubated for 30 mins followed by viral infection and measured after 40 mins; assay type: functional, organism-based; conditions: Erythrocyte, time 70.0 min
Influenza A virus [9] = experiment: Antiviral activity against Influenza A virus A/PR/8/34 infected in MDCK cells MOI 0.01 assessed as inhibition of viral growth pre-infected for 1 hr followed by compound addition and measured 24 hrs post infection by plaque assay; assay type: functional, organism-based; conditions: A/PR/8/34, MDCK
Influenza A virus [10] = experiment: Antiviral activity against Influenza A virus B/Florida/4/06 infected in MDCK cells MOI 0.01 assessed as inhibition of viral growth pre-infected for 1 hr followed by compound addition and measured 24 hrs post infection by plaque assay; assay type: functional, organism-based; conditions: B/Florida/4/06, MDCK
[11] = target: Polymerase acidic protein (Influenza A virus (A/Puerto Rico/8/1934(H1N1)), UniProt P03433); experiment: Binding affinity to C-terminal Influenza A virus Polymerase acidic protein assessed as dissociation constant by MST assay
Influenza A virus [12] = experiment: Antiviral activity against Influenza A virus A/WSN/33(H1N1) infected in MDCK cells assessed as reduction in virus-induced cytopathic effect at 12.5 uM pre-infected with cells for 1 hrs followed by compound addition and measured after 2 days by MTT assay; assay type: functional, organism-based; conditions: time 2.0 day
Influenza A virus [13] = experiment: Antiviral activity against Influenza A virus A/WSN/33(H1N1) infected in MDCK cells MOI 0.1 assessed as reduction in viral titre at 12 uM pre-infected with cells for 6 hrs followed by compound addition and measured after 2 to 4 hrs post infection by time of addition assay; assay type: functional, organism-based
Influenza A virus [14] = experiment: Antiviral activity against Influenza A virus A/WSN/33(H1N1) infected in chicken erythrocytes assessed as reduction in neuraminidase level incubated for 2 hrs; assay type: functional, organism-based; conditions: Erythrocyte
Influenza A virus [15] = experiment: Antiviral activity against Influenza A virus A/WSN/33(H1N1) infected in MDCK cells assessed as inhibition of viral growth pre-infected for 1 hr followed by compound addition and measured 24 hrs post infection by plaque assay; assay type: functional, organism-based
Influenza A virus [16] = experiment: Antiviral activity against Influenza A virus A/WSN/33(H1N1) infected in MDCK cells MOI 0.1 assessed as inhibition of viral growth at 12.5 uM pre-infected with cells for 6 hrs followed by compound addition and measured after 2 to 4 hrs post infection by time of addition assay; assay type: functional, organism-based
[17] = Cytotoxicity against African green monkey Vero cells assessed as reduction in cell viability incubated for 48 hrs by MTT assay; assay type: toxicity, cell-based; conditions: chlorocebus sabaeus
[18] = Selectivity index, ratio of CC50 for cytotoxicity against MDCK cells assessed as reduction in cell viability to IC50 for antiviral activity against Influenza A virus A/HK/1/68 infected in MDCK cells MOI 0.01 assessed as inhibition of viral growth; assay type: toxicity, cell-based; conditions: dog, read-out: Ratio CC50/IC50
Influenza A virus [19] = experiment: Antiviral activity against Influenza A virus A/WSN/33(H1N1) infected in MDCK cells MOI 0.1 assessed as reduction in viral titre at 12.5 uM pre-infected with cells for 6 hrs followed by compound addition and measured after 6 to 8 hrs post infection by time of addition assay; assay type: functional, organism-based
[20] = Cytotoxicity against MDCK cells assessed as reduction in cell viability incubated for 48 hrs by MTT assay; assay type: toxicity, cell-based, Canis lupus familiaris; conditions: dog
Influenza A virus [21] = experiment: Antiviral activity against Influenza A virus A/HK/1/68 infected in MDCK cells MOI 0.01 assessed as inhibition of viral growth pre-infected for 1 hr followed by compound addition and measured 24 hrs post infection by plaque assay; assay type: functional, organism-based; conditions: A/HK/1/68, MDCK
Influenza A virus [22] = experiment: Antiviral activity against Influenza A virus A/WSN/33(H1N1) infected in MDCK cells assessed as reduction in virus-induced cytopathic effect at 100 uM pre-infected with cells for 1 hrs followed by compound addition and measured after 2 days by MTT assay; assay type: functional, organism-based; conditions: time 2.0 day
Influenza A virus [23] = experiment: Antiviral activity against Influenza A virus A/WSN/33(H1N1) infected in MDCK cells MOI 0.1 assessed as reduction in viral titre at 100 uM pre-infected with cells for 6 hrs followed by compound addition and measured after 2 hrs post infection by time of addition assay; assay type: functional, organism-based
Influenza A virus [24] = experiment: Antiviral activity against Influenza A virus A/WSN/33(H1N1) infected in MDCK cells MOI 0.1 assessed as reduction in viral titre at 100 uM pre-infected with cells for 6 hrs followed by compound addition and measured after 6 to 8 hrs post infection by time of addition assay; assay type: functional, organism-based
Influenza A virus [25] = experiment: Antiviral activity against Influenza A virus A/WSN/33(H1N1) infected in MDCK cells assessed as inhibition of viral growth at 100 uM pre-infected for 1 hr followed by compound addition and measured 24 hrs post infection by plaque assay relative to control; assay type: functional; conditions: time 23 hrs
Influenza A virus [26] = experiment: Antiviral activity against Influenza A virus A/WSN/33(H1N1) infected in MDCK cells MOI 0.1 assessed as reduction in viral titre at 100 uM pre-infected with cells for 6 hrs followed by compound addition and measured after 2 to 4 hrs post infection by time of addition assay; assay type: functional, organism-based
Influenza A virus [27] = experiment: Antiviral activity against Influenza A virus A/WSN/33(H1N1) infected in MDCK cells MOI 0.1 assessed as reduction in viral titre at 100 uM pre-infected with cells for 6 hrs followed by compound addition and measured after 4 to 6 hrs post infection by time of addition assay; assay type: functional, organism-based
Influenza A virus [28] = experiment: Antiviral activity against Influenza A virus A/WSN/33(H1N1) infected in MDCK cells assessed as reduction in virus-induced cytopathic effect at 25 uM pre-infected with cells for 1 hrs followed by compound addition and measured after 2 days by MTT assay; assay type: functional, organism-based; conditions: time 2.0 day

Compound | selectivity ratio [1] | selectivity ratio [2] | selectivity ratio [4] | Kd (Nucleoprotein) | selectivity ratio [6] | IC50 [7] | Activity (Influenza A virus [8]) | IC50 (Influenza A virus [9]) | IC50 (Influenza A virus [10]) | Kd [11] | Activity (Influenza A virus [14]) | IC50 (Influenza A virus [15]) | CC50 at 48 h [17] | selectivity ratio [18] | CC50 at 48 h [20] | IC50 (Influenza A virus [21]) | Activity (Influenza A virus [23]) | Activity (Influenza A virus [24]) | inhibition at 100 µM (Influenza A virus [25]) | Activity (Influenza A virus [26]) | other results
O=C(NCCCN1CCOCC1)c1ccccc1Nc1ccnc2ccc(Cl)cc12 | > 16 | > 3 | > 15 | 33 µM | > 13 | 11.8 µM | inactive | 3.94 µM | 3.32 µM | 28.8 µM | inactive | 3.21 µM | 31.4 µM | > 15 | > 50 µM | 3.31 µM |  |  |  |  | Activity (Influenza A virus [3]): 5%; Activity (Influenza A virus [5]): Active; Activity (Influenza A virus [12]): Active; Activity (Influenza A virus [13]): Active; inhibition (Influenza A virus [16]): Active; Activity (Influenza A virus [19]): inactive
O=C(O)c1ccccc1Nc1ccnc2cc(C(F)(F)F)ccc12 | > 15 | > 10 | > 4 | 20.4 µM | > 9 | 19.2 µM | inactive | 11.3 µM | 22.3 µM | 8.36 µM | inactive | 6.73 µM | > 200 µM | > 4 | > 100 µM | 27.8 µM | Active | inactive | 97.3% | Active | Activity (Influenza A virus [22]): Active; Activity (Influenza A virus [27]): Active
O=C(Nc1cccc([N+](=O)[O-])c1)c1ccccc1Nc1ccnc2cc(C(F)(F)F)ccc12 | > 18 | > 7 | > 8 |  | > 18 | 14 µM | inactive | 5.5 µM | 12 µM |  | inactive | 5.53 µM | > 100 µM | > 12 | > 100 µM | 8.5 µM | Active | inactive | 99.8% | Active | Activity (Influenza A virus [28]): Active; Activity (Influenza A virus [27]): Active
